Measured values reported in PubChem BioAssay (NCI).
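Tested at 5 concentrations; 48 h exposure; 96-well plates; endpoints linearly interpolated, else capped at highest concentration. Definition used: TGI = concentration required for complete inhibition of growth.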

Assays:
Experiment in all cases: NCI tumour cell line growth inhibition, 48 h
HCT-15 colon = system: HCT-15 colon
TK-10 renal = system: TK-10 renal
HCT-116 colon = system: HCT-116 colon
RPMI-8226 leukemia = system: RPMI-8226 leukemia
BT-549 breast = system: BT-549 breast
CCRF-CEM leukemia = system: CCRF-CEM leukemia
UACC-62 melanoma = system: UACC-62 melanoma
SR leukemia = system: SR leukemia
SN12C renal = system: SN12C renal
SF-539 CNS = system: SF-539 CNS
MALME-3M melanoma = system: MALME-3M melanoma
LOX IMVI melanoma = system: LOX IMVI melanoma
NCI-H226 lung = system: NCI-H226 lung
MDA-MB-231 breast = system: MDA-MB-231 breast
SK-OV-3 ovarian = system: SK-OV-3 ovarian
OVCAR-4 ovarian = system: OVCAR-4 ovarian
HS 578T breast = system: HS 578T breast
OVCAR-8 ovarian = system: OVCAR-8 ovarian
MDA-N = system: MDA-N
MCF7 breast = system: MCF7 breast
M14 melanoma = system: M14 melanoma
UO-31 renal = system: UO-31 renal
786-0 renal = system: 786-0 renal
UACC-257 melanoma = system: UACC-257 melanoma
ACHN renal = system: ACHN renal
NCI-H522 lung = system: NCI-H522 lung
SW-620 colon = system: SW-620 colon
SK-MEL-2 melanoma = system: SK-MEL-2 melanoma
U251 CNS = system: U251 CNS
EKVX NSCLC = system: EKVX NSCLC
SNB-75 CNS = system: SNB-75 CNS
RXF 393 renal = system: RXF 393 renal
T-47D breast = system: T-47D breast
HCC-2998 colon = system: HCC-2998 colon
SF-268 CNS = system: SF-268 CNS
NCI-H23 lung = system: NCI-H23 lung
COLO 205 colon = system: COLO 205 colon
KM12 colon = system: KM12 colon
HOP-62 NSCLC = system: HOP-62 NSCLC
HL-60(TB) leukemia = system: HL-60(TB) leukemia
HT29 colon = system: HT29 colon
HOP-92 NSCLC = system: HOP-92 NSCLC
CAKI-1 renal = system: CAKI-1 renal
MOLT-4 leukemia = system: MOLT-4 leukemia
SK-MEL-28 melanoma = system: SK-MEL-28 melanoma
SF-295 CNS = system: SF-295 CNS
MDA-MB-435 = system: MDA-MB-435
A549 NSCLC = system: A549 NSCLC
OVCAR-5 ovarian = system: OVCAR-5 ovarian
OVCAR-3 ovarian = system: OVCAR-3 ovarian
IGROV1 ovarian = system: IGROV1 ovarian
SNB-19 CNS = system: SNB-19 CNS
PC-3 prostate = system: PC-3 prostate
DU-145 prostate = system: DU-145 prostate
NCI/ADR-RES ovarian = system: NCI/ADR-RES ovarian
NCI-H460 lung = system: NCI-H460 lung
K-562 leukemia = system: K-562 leukemia
A498 renal = system: A498 renal

SMILES: O=C1NC(N2CCOCC2)=N/C1=C\c1ccc(O)cc1
- TGI (HCT-15 colon): > 100 µM
- TGI (TK-10 renal): > 100 µM
- TGI (HCT-116 colon): > 100 µM
- TGI (RPMI-8226 leukemia): > 100 µM
- TGI (BT-549 breast): > 100 µM
- TGI (CCRF-CEM leukemia): > 100 µM
- TGI (UACC-62 melanoma): > 100 µM
- TGI (SR leukemia): > 100 µM
- TGI (SN12C renal): > 100 µM
- TGI (SF-539 CNS): > 100 µM
- TGI (MALME-3M melanoma): > 100 µM
- TGI (LOX IMVI melanoma): > 100 µM
- TGI (NCI-H226 lung): > 100 µM
- TGI (MDA-MB-231 breast): > 100 µM
- TGI (SK-OV-3 ovarian): > 100 µM
- TGI (OVCAR-4 ovarian): > 100 µM
- TGI (HS 578T breast): > 100 µM
- TGI (OVCAR-8 ovarian): > 100 µM
- TGI (MDA-N): > 100 µM
- TGI (MCF7 breast): > 100 µM
- TGI (M14 melanoma): > 100 µM
- TGI (UO-31 renal): > 100 µM
- TGI (786-0 renal): > 100 µM
- TGI (UACC-257 melanoma): > 100 µM
- TGI (ACHN renal): > 100 µM
- TGI (NCI-H522 lung): > 100 µM
- TGI (SW-620 colon): > 100 µM
- TGI (SK-MEL-2 melanoma): > 100 µM
- TGI (U251 CNS): > 100 µM
- TGI (EKVX NSCLC): > 100 µM
- TGI (SNB-75 CNS): > 100 µM
- TGI (RXF 393 renal): > 100 µM
- TGI (T-47D breast): > 100 µM
- TGI (HCC-2998 colon): > 100 µM
- TGI (SF-268 CNS): > 100 µM
- TGI (NCI-H23 lung): > 100 µM
- TGI (COLO 205 colon): > 100 µM
- TGI (KM12 colon): > 100 µM
- TGI (HOP-62 NSCLC): > 100 µM
- TGI (HL-60(TB) leukemia): > 100 µM
- TGI (HT29 colon): > 100 µM
- TGI (HOP-92 NSCLC): > 100 µM
- TGI (CAKI-1 renal): > 100 µM
- TGI (MOLT-4 leukemia): > 100 µM
- TGI (SK-MEL-28 melanoma): > 100 µM
- TGI (SF-295 CNS): > 100 µM
- TGI (MDA-MB-435): > 100 µM
- TGI (A549 NSCLC): > 100 µM
- TGI (OVCAR-5 ovarian): > 100 µM
- TGI (OVCAR-3 ovarian): > 100 µM
- TGI (IGROV1 ovarian): > 100 µM
- TGI (SNB-19 CNS): > 100 µM
- TGI (PC-3 prostate): > 100 µM
- TGI (DU-145 prostate): > 100 µM
- TGI (NCI/ADR-RES ovarian): > 100 µM

SMILES: Oc1ccc(-c2nc3ccccc3s2)cc1
- TGI (HCT-15 colon): > 100 µM
- TGI (HCT-116 colon): 74.9 µM
- TGI (RPMI-8226 leukemia): > 100 µM
- TGI (BT-549 breast): > 100 µM
- TGI (CCRF-CEM leukemia): > 100 µM
- TGI (UACC-62 melanoma): > 100 µM
- TGI (SR leukemia): 87.7 µM
- TGI (SN12C renal): > 100 µM
- TGI (SF-539 CNS): > 100 µM
- TGI (MALME-3M melanoma): > 100 µM
- TGI (LOX IMVI melanoma): 45 µM
- TGI (NCI-H226 lung): > 100 µM
- TGI (MDA-MB-231 breast): 63.4 µM
- TGI (SK-OV-3 ovarian): 86 µM
- TGI (OVCAR-4 ovarian): > 100 µM
- TGI (HS 578T breast): 78.8 µM
- TGI (OVCAR-8 ovarian): > 100 µM
- TGI (MDA-N): > 100 µM
- TGI (MCF7 breast): > 100 µM
- TGI (M14 melanoma): > 100 µM
- TGI (NCI-H460 lung): > 100 µM
- TGI (UO-31 renal): > 100 µM
- TGI (786-0 renal): > 100 µM
- TGI (UACC-257 melanoma): > 100 µM
- TGI (ACHN renal): > 100 µM
- TGI (NCI-H522 lung): 47.9 µM
- TGI (SW-620 colon): > 100 µM
- TGI (K-562 leukemia): > 100 µM
- TGI (SK-MEL-2 melanoma): 67.3 µM
- TGI (U251 CNS): > 100 µM
- TGI (EKVX NSCLC): > 100 µM
- TGI (SNB-75 CNS): > 100 µM
- TGI (RXF 393 renal): > 100 µM
- TGI (T-47D breast): 70 µM
- TGI (SF-268 CNS): 90.2 µM
- TGI (NCI-H23 lung): 79.1 µM
- TGI (COLO 205 colon): > 100 µM
- TGI (KM12 colon): 38.8 µM
- TGI (HOP-62 NSCLC): > 100 µM
- TGI (HL-60(TB) leukemia): > 100 µM
- TGI (HT29 colon): > 100 µM
- TGI (HOP-92 NSCLC): > 100 µM
- TGI (CAKI-1 renal): 58.3 µM
- TGI (MOLT-4 leukemia): > 100 µM
- TGI (SK-MEL-28 melanoma): > 100 µM
- TGI (SF-295 CNS): > 100 µM
- TGI (MDA-MB-435): > 100 µM
- TGI (A549 NSCLC): > 100 µM
- TGI (OVCAR-5 ovarian): > 100 µM
- TGI (OVCAR-3 ovarian): > 100 µM
- TGI (A498 renal): > 100 µM
- TGI (IGROV1 ovarian): > 100 µM
- TGI (SNB-19 CNS): > 100 µM
- TGI (PC-3 prostate): > 100 µM
- TGI (DU-145 prostate): > 100 µM
- TGI (NCI/ADR-RES ovarian): > 100 µM
